Values joined by “and” are separate entries in the source; they are usually repeats but may differ in a detail not shown here. Equal values may be shown once.

The test has as its target H.c.LSU group II intron. It counts as biochemical, Histoplasma capsulatum. The note with it: logistic fit of kobs against 14 inhibitor concentrations, 5 nM to 300 μM; MB18 readout; 37° C.; read-out: KI (inhibition constant) of the self-splicing reaction.

Consider `O=C1c2c(O)ccc(O)c2C(=O)c2c(NCCNCCO)ccc(NCCNCCO)c21` [mitoxantrone], for which the Ki (commonly the equilibrium dissociation constant of an inhibitor or competing ligand from its target) was 1790 nM and 2240 nM.
